Reference: article PMC11395232, “Aquaporin-3a Dysfunction Impairs Osmoadaptation in Post-Activated Marine Fish Spermatozoa” (International Journal of Molecular Sciences, 2024)

What was measured:
human AQP3 (HsAQP3) = biological target: T1, human AQP3 (HsAQP3) (Homo sapiens, UniProt Q92482); experiment: oocyte swelling assay, osmotic water permeability (Pf); format: cell-based
T1 construct: cDNA heterologously expressed in Xenopus laevis oocytes (10 ng cRNA)
T1 sequence (Q92482 1-292): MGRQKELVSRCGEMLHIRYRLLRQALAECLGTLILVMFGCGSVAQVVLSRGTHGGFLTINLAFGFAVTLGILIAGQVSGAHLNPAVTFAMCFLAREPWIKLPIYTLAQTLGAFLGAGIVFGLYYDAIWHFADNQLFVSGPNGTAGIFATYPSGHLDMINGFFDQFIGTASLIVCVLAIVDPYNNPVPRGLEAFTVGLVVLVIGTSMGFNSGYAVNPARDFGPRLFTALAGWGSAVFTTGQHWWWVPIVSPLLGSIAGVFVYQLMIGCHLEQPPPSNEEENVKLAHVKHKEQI

Aqp3a (SaAqp3a) = biological target: T2, Aqp3a (SaAqp3a) (Sparus aurata, UniProt A0A671Y259); experiment: as above; format: cell-based
T2 construct: cDNA heterologously expressed in Xenopus laevis oocytes (10 ng cRNA); calculated monomer mass 33 kDa
T2 sequence (A0A671Y259 1-302): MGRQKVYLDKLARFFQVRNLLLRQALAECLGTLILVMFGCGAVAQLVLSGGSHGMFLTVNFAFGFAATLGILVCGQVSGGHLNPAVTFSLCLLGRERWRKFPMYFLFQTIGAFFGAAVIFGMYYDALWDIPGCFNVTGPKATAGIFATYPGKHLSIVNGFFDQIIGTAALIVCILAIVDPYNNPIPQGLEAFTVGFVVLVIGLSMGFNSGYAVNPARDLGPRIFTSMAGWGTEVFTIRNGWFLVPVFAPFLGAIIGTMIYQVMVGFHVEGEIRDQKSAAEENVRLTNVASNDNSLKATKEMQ

inhibition at 10 µM (human AQP3 (HsAQP3)): 66 ± 4% | inhibition at 10 µM (Aqp3a (SaAqp3a)): 76 ± 4%
SMILES: O=C(Nc1csc([N+](=O)[O-])c1)Nc1c(Cl)cccc1Cl [DFP00173]
